Legend:
H-2Kd [1] = molecular target: T1, H-2Kd (Mus musculus, UniProt P01902); test: Competitive inhibition of 125I-LLO; type: binding; details: for binding to H-2Kd (in words): peptide-binding inhibition experiments, Fig. 1
H-2Kd [2] = molecular target: T1, H-2Kd; details: cited from earlier work
CMS1 = test: 4-h 51Cr release assay of vaccine-induced effectors, CMS1 targets; type: cell-based, mouse; details: separate experiment, data not shown
Meth A = test: 4-h 51Cr release assay of vaccine-induced effectors, Meth A targets; type: cell-based, mouse; details: 239CM-induced CTL; separate experiment, data not shown
[3] = cited from earlier work

T1 sequence (P01902 whole entry, looked up): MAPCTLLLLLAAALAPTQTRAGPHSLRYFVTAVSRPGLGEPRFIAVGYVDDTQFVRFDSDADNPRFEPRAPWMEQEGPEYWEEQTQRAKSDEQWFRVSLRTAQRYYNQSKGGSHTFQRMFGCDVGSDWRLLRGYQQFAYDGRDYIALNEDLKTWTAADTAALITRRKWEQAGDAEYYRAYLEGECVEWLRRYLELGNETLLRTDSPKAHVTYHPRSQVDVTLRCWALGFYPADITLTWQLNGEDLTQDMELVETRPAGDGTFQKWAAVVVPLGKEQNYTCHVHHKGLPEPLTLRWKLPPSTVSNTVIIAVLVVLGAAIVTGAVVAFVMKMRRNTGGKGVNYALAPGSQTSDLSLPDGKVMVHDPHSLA

For “234CW: wild-type peptide p53(232-240) (KYMCNSSCM; UniProt P02340 232-240, looked up, fragment)”, which “binding to H-2Kd (in words)” value (H-2Kd [1]) is on record?
Its value is “capable of binding to H-2Ka”.

With “GFKDGNEYI [LLO(Y2F), reference compound]” as the substance, how does the “relative binding to H-2Kd (in words)” value (H-2Kd [1]; compared with other peptides in the same assay) read?
Its value is “comparable to that of the parent peptide”.

For GYKDGNEYI [LLO], which “binding affinity to H-2Kd (in words)” value (H-2Kd [2]) is on record?
The value was “high affinity”.

For KYMCNSSFM [239CM], which “induction of CTL reactive against CMS1” value (CMS1) is on record?
The value was “induced CTL reactive against CMS1”.

What about the “binding to H-2Kd (in words)” value (H-2Kd [1]) of the same substance?
The value was “capable of binding to H-2Ka”.

And the “induction of CTL reactive against Meth A” value (Meth A)?
Its value is “not Meth A”.

For LFCQLAKTC [132CW], which “immunogenicity (in words)” value [3] is on record?
Its value is “lack of immunogenicity”.

For LFFQLAKTC [132CM], which “immunogenicity (in words)” value [3] is on record?
The value was “lack of immunogenicity”.

For MTEVVRtkCP [168CW], which “immunogenicity (in words)” value [3] is on record?
The value was “lack of immunogenicity”.

Which “immunogenicity (in words)” value [3] does the source give for MTGVVR.R.CP [168CM] here?
The value was “lack of immunogenicity”.

Reference: PMC2192493 (The Journal of Experimental Medicine, 1996)
